Consider twelve molecules from patent US5565441A, “Phosphonoacetic esters and acids as anti-inflammatories” (The Upjohn Company, priority 1995, dated 1996).

Molecules are shown by their SMILES. Where two headings read alike, the source gives them in different places.

The test system of the assay is DTH granuloma (DTH GRA) lesion in mBSA-sensitized mice. Nature of the assay: Delayed Type Hypersensitivity Granuloma Assay (DTH GRA) model for inflammation. The class given is in vivo, mouse. Conditions: for inhibition in vivo at 10 mg/kg: read-out: % Inhibition (DTH granuloma). The text has this: The Formula I compounds of this invention have been tested in a Delayed Type Hypersensitivity Granuloma Assay (DTH GRA) model for inflammation. This assay is described by Dunn, C. J. et al., "Development of a delayed-type hypersensitivity granuloma model in the mouse for the study of chronic immune-mediated inflammatory disease," Agents and Actions, 27, 3/4 (1989) and "Murine Delayed-Type Hypersensitivity Granuloma," Int. J. Immunopharmc., 12, 8, 899-904 (1990).
Briefly, mBSA-sensitized mice have a DTH granuloma (DTH GRA) lesion induced by subcutaneously implanting a mBSA-soaked filter which is excised after nine days. Compounds are administered to the mice to determine their effect on the lesions. The results are recorded as percent inhibition. […] Inhibition of 10 to 20% is considered to indicate anti-granuloma activity. Greater than 30% inhibition is good activity.

[1] abbreviates: Mus musculus, 216 h, 10 MPK, PO, mBSA-sensitized mice, mBSA-soaked filter excised after nine days.

Take `CCOC(=O)C(CC(C(=O)c1ccccc1)c1ccccc1)P(=O)(OCC)OCC` (stereo not drawn) [Compound 3, Benzenepentanoic acid, α-(diethoxyphosphinyl)-δ-oxo-γ-phenyl-, ethyl ester]: the inhibition in vivo at 10 mg/kg under setting [1] worked out at 21%.
The same measure, in the same setting: in the case of `COC(=O)C1(P(=O)(OC)OC)CC1C(=O)c1ccccc1` (stereo not drawn) [Compound 10, Cyclopropanecarboxylic acid, 2-benzoyl-1-(dimethoxyphosphinyl)-, methyl ester] it was 47%; in that of `COC(=O)C(CCC(=O)c1cccc(F)c1)P(=O)(OC)OC` (stereo not drawn) [Compound 2, Benzenepentanoic acid, α-(dimethoxyphosphinyl)-3-fluoro-δ-oxo-,methyl ester], 26%.
Turning to `COC(=O)C1(P(=O)(OC)OC)CN1N1C(=O)c2ccccc2C1=O` (stereo not drawn) [Compound 11, 2-Aziridinecarboxylic acid, 1-(1,3-dihydro-1,3-dioxo-2H-isoindol-2-yl)-2-(dimethoxyphosphinyl)-, methyl ester], the inhibition in vivo at 10 mg/kg (Mus musculus, po, 216 h) came out at 42%.
Regarding `COC(=O)C(CCc1nc(-c2ccccc2)cc(=O)n1C)P(=O)(OC)OC` (stereo not drawn) [Compound 6a, 2-Pyrimidinebutanoic acid, α-(dimethoxyphosphinyl)-1,6-dihydro-1-methyl-6-oxo-4-phenyl-, methyl ester], the inhibition in vivo at 10 mg/kg under setting [1] stood at 51%.
With `COC(=O)C(CCC(=O)c1cccnc1)P(=O)(OC)OC` (stereo not drawn) [Compound 4, 3-Pyridinepentanoic acid, α-(dimethoxyphosphinyl)-δ-oxo-, methyl ester], the inhibition in vivo at 10 mg/kg under setting [1] came out at 37%.
As for `COP(=O)(OC)C(CCc1nc(-c2ccccc2)cc(=O)n1C)C(=O)OC(C)(C)C` (stereo not drawn) [Compound 15, 2-Pyrimidine butanoic acid, α-(dimethoxyphosphinyl)-1,6-dihydro-1-methyl-6-oxo-4-phenyl, dimethylethyl ester], the inhibition in vivo at 10 mg/kg under setting [1] is 21%.
In the case of `CCOC(=O)C1=NNC(C(=O)OC)(P(=O)(OC)OC)C1` (stereo not drawn) [Compound 8, 1H-Pyrazole-5-carboxylic-acid, 3-carboethoxy-5-(dimethoxyphosphinyl)-4,5-dihydro, methyl ester], the “% Inhibition (DTH granuloma)” value (10 MPK, PO, mBSA-sensitized mice, mBSA-soaked filter excised after nine days) is 59%.
As for `COC(=O)C(CCc1nc(-c2ccccc2)cc(=O)n1C)P(=O)(O)O` (stereo not drawn) [Compound 6b], the inhibition in vivo at 10 mg/kg under setting [1] turned out to be 37%.
As to `COC(=O)C(CCc1cc(C)nc2c(C#N)c(C)nn12)P(=O)(OC)OC` (stereo not drawn) [Compound 7, Pyrazolo(1,5-a)pyrimidine-7-butanoic acid, 3-cyano-α-(dimethoxyphosphinyl)-2,5-dimethyl-, methyl ester], the inhibition in vivo at 10 mg/kg under setting [1] is 38%.
Regarding `COC(=O)C1(P(=O)(OC)OC)CC(C(=O)c2ccccc2)=NN1` (stereo not drawn) [Compound 9, 1H-Pyrazole-5-carboxylic acid, 3-benzoyl-5-(dimethoxyphosphinyl)-4,5-dihydro-, methyl ester], the inhibition in vivo at 10 mg/kg under setting [1] amounted to 37%.
Take `CCOC(=O)C(CCC(=O)c1ccccc1)P(=O)(OCC)OCC` (stereo not drawn) [Compound 1, Benzenepentanoic acid, α-(diethoxyphosphinyl)-δ-oxo-, ethyl ester]: the inhibition in vivo at 50 mg/kg (Mus musculus, 216 h, at 50 MPK, PO, mBSA-sensitized mice, mBSA-soaked filter excised after nine days) was found to be 37%.
